Assay results reported in paper PMC6323793 (BMC Cancer, 2019).
Read-outs that look alike come from different tables or passages of the source.

Assays:
recombinant human Cdc25C = target: T1, recombinant human Cdc25C (Homo sapiens, UniProt P30307); assay: Cdc25C fluorometric phosphatase assay (OMFP substrate); type: biochemical
T1 construct: purchased CycLex CY-1354
T1 sequence (P30307 1-473): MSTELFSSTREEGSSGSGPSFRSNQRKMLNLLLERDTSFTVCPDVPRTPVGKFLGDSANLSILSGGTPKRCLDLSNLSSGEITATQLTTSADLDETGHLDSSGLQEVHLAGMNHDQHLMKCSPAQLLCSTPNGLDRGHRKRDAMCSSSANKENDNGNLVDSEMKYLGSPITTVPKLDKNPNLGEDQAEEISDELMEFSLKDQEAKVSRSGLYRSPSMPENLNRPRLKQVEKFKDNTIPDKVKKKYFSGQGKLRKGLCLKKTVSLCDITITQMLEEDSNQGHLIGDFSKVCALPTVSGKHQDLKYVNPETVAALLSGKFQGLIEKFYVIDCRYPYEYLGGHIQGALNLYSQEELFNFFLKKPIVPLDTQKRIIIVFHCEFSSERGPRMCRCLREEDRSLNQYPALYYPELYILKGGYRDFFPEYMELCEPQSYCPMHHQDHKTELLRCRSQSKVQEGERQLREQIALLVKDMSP
Description: (§1) In summary, dual-specificity phosphatase activity was measured in a 96-well microtiter plate using O-methylfluorescein phosphate (OMFP) as a substrate. 5 μL (0.1 μg/μL) of purified recombinant Cdc25s (Cdc25A, -B and -C) was mixed with 40 μL of assay mixture and incubated with 5 μL of the test compound at various concentrations in a well. Then, 25 μL of stop solution was added. […] Menadione is a quinone-type inhibitor of Cdc25s that was used as a positive control here.

recombinant human Cdc25A = target: T2, recombinant human Cdc25A (Homo sapiens, UniProt P30304); assay: Cdc25A fluorometric phosphatase assay (OMFP substrate); type: biochemical
T2 construct: purchased CycLex CY-1352
T2 sequence (P30304 1-524): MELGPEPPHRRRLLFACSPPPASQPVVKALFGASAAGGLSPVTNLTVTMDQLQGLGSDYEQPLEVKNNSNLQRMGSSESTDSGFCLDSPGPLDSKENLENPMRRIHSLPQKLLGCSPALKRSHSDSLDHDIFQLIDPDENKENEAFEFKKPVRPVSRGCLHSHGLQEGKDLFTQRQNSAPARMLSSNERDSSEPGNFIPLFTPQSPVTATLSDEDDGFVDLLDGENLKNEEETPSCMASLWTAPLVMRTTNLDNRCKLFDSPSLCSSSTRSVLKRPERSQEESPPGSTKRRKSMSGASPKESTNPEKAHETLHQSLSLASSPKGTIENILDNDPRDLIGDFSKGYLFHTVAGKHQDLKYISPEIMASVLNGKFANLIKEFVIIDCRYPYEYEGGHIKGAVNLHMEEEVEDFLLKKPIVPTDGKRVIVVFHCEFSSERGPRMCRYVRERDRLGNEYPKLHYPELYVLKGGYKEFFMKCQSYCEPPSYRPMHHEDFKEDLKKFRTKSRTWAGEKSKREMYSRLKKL
Description: as §1

recombinant human Cdc25B = target: T3, recombinant human Cdc25B (Homo sapiens, UniProt P30305); assay: Cdc25B fluorometric phosphatase assay (OMFP substrate); type: biochemical
T3 construct: purchased CycLex CY-1353
T3 sequence (P30305 1-580): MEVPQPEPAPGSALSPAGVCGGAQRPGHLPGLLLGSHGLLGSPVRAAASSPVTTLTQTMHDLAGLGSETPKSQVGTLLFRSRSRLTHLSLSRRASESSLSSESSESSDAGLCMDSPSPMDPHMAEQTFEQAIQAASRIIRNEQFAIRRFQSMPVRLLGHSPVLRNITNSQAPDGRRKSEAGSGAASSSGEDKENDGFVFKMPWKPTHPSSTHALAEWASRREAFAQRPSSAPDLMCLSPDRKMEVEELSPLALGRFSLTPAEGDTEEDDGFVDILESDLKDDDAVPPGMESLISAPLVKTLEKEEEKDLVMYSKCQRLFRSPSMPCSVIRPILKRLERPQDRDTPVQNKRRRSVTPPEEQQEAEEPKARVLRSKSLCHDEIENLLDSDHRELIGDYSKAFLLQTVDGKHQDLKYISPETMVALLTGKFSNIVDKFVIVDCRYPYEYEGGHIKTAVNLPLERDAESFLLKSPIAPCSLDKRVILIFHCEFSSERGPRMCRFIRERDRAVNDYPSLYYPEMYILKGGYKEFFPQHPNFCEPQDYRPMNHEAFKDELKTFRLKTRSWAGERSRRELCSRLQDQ
Description: Then, 25 μL of stop solution was added. Fluorescence was measured at an excitation wavelength of 485 nm and an emission wavelength of 530 nm using a fluorescence microplate reader (BioTek Instruments, Inc., Winooski, VT, USA). Menadione is a quinone-type inhibitor of Cdc25s that was used as a positive control here.

[1] = system: phosphorylated CDK1 in primary tumour tissues; assay: Phosphorylated CDK1 in tumour tissue of K562-bearing mice; type: in vivo, mouse; settings: especially the 5 and 10 mg/kg groups, vs control group
Description: (§2) The phosphorylation status of CDK1 was analysed by Western blotting as described in our previous work. […] The protein concentration in cell lysates was confirmed by the Bradford method. Fifty micrograms of protein per lane was resolved on 10% SDS polyacrylamide gels, and the bands were transferred to PVDF membranes (Millipore). Nonspecific reactivity was blocked by 5% non-fat milk prepared in TBST (10 mM Tris, 150 mM NaCl, 0.05% Tween-20, pH 7.5) at room temperature for 1 h. The protein signals were captured with primary antibodies and the secondary antibodies according to the manufacturers’ instructions. In this process, the protein β-actin was used to normalize target protein. All antibodies used in this paper were purchased from Cell Signaling Technology (Inc, China).
(§3) The mouse model was constructed according to our previous work. Balb/c mice (female, 5 weeks old), purchased from Shanghai SLAC Laboratory Animal Co., LTD (Shanghai, China), were subcutaneously injected into a 100 μL K562 cell suspension (5 × 10^6/mL, PBS) in the right flank of mice. […] The long and short dimensions of tumour size were measured by a digital calliper at days 1, 4, 8, 11, 16, 21, and 24 after treatment. The volume was calculated with the formula (long dimension) × (short dimension)^2/2. The mice were euthanized 2 days after the last treatment by the method of cervical dislocation.

MCF-7 cells [2] = assay: Intracellular ROS assay (DCFH-DA) in MCF-7 cells; type: cell-based; settings: 5 μM and 25 μM, 4 h, compared with control cells
Description: (§4) Reactive oxygen species (ROS) were detected with the fluorescent probe 2′,7′-dichlorofluorescin diacetate (DCFH-DA) as described by others. Briefly, MCF-7 cells or tsFT210 (synchronized at G2 phase) cells were plated in 96-well plates and loaded with 20 μM DCFH-DA for 30 min at 37 °C in culture medium. […] Untreated cells were used as control. Fluorescence was measured using a fluorescence microplate reader (BioTek Instruments, excitation wavelength: 485 nm, emission wavelength: 528 nm). The ROS levels were expressed as RFU (relative fluorescence unit).

tsFT210 cells [3] = assay: Cell cycle analysis by flow cytometry; type: cell-based, mouse; settings: synchronized tsFT210 cells released at 32 °C, treated for 6 h
Description: Cell cycle analysis was performed as described previously. […]. The harvested cells were stained with staining buffer (50 μg/ml propidium iodide, 0.1% sodium citrate and 0.2% NP-40) and analysed by Flow Cytometry (BD Biosciences). A final concentration of 0.5% DMSO was used for all compounds and as a negative control. Nocodazole, a potent mitotic blocker that arrests cells at the G2/M phase, was used as a positive control at a concentration of 100 nM.

K562 cells = assay: MTT anti-proliferation assay, K562; settings: Homo sapiens, K562, 48 h, read-out: IC50 K562
[4] = system: CDK1 (tyrosine 15 phosphorylation) in tsFT210 cells; assay: Western blot of CDK1 phosphorylation status in cells; type: cell-based, mouse; settings: cells in G2/M phase, 1 μM, 5 μM and 25 μM, 4 h
Description: as §2

tsFT210 cells [5] = assay: MTT anti-proliferation assay, tsFT210; settings: Mus musculus, tsFT210, 48 h, read-out: IC50 tsFT210
K562 xenograft tumour = assay: K562 xenograph tumour model in mice; type: in vivo, mouse
Description: as §3

MCF-7 cells [6] = assay: MTT anti-proliferation assay, MCF-7; settings: Homo sapiens, MCF7, 48 h, read-out: IC50 MCF-7
HeLa cells = assay: MTT anti-proliferation assay, HeLa; settings: Homo sapiens, 48 h, read-out: IC50 HeLa
tsFT210 cells [7] = assay: Intracellular ROS assay (DCFH-DA) in tsFT210 cells; type: cell-based, mouse; settings: tsFT210 cells synchronized at G2 phase, 5 μM and 25 μM, 4 h, compared with control cells
Description: as §4

[8] = recombinant human phosphatase, OMFP substrate, mean ± S.E.M., read-out: IC50 Cdc25C
[9] = recombinant human phosphatase, OMFP substrate, mean ± S.E.M., read-out: IC50 Cdc25A
[10] = recombinant human phosphatase, OMFP substrate, mean ± S.E.M., read-out: IC50 Cdc25B

| SMILES | IC50 (recombinant human Cdc25C; [8]) | IC50 (recombinant human Cdc25A; [9]) | IC50 (recombinant human Cdc25C) | IC50 (recombinant human Cdc25A) | IC50 (recombinant human Cdc25B) | other results |
| --- | --- | --- | --- | --- | --- | --- |
| CC(C)=CCC(OC(=O)CC(C)C)C1=CC(=O)c2c(O)ccc(O)c2C1=O (centres unmarked) [Isovalerylshikonin] | 11 ± 0.97 µM | 9.53 ± 0.78 µM |  |  |  |  |
| CCC(C)C(=O)O[C@H](CC=C(C)C)C1=CC(=O)c2c(O)ccc(O)c2C1=O (stereo partly drawn) [α-Methyl-η-butylshikonin] | 13.5 ± 1.45 µM | 11.2 ± 1.45 µM |  |  |  | IC50 (recombinant human Cdc25B; [10]): 14.3 ± 1.27 µM |
| CC(C)=CC[C@@H](O)C1=CC(=O)c2c(O)ccc(O)c2C1=O [Shikonin] |  |  | 4.78 ± 0.18 µM | 2.14 ± 0.21 µM |  | Protein levels of phosphorylated CDK1 in primary tumour tissues [1]: significantly increased; Intracellular ROS (MCF-7 cells [2]): increased significantly; Effect on cell cycle progression (tsFT210 cells [3]): blocked at the G2/M phase in a concentration-dependent manner; IC50 (K562 cells): 6.15 ± 0.46 µM; Phosphorylation status of CDK1 (Western blot) [4]: induced an accumulation of the tyrosine 15-phosphorylated form of CDK1; IC50 (tsFT210 cells [5]): 8.97 ± 0.87 µM; Tumour growth (K562 xenograft tumour; K562-bearing mice, 1, 5, or 10 mg/kg every other day, 21 days, vs vehicle): concentration-dependently inhibited tumour growth; Survival (Kaplan-Meier) (K562 xenograft tumour; K562-bearing mice, 1, 5, or 10 mg/kg, vs control group): prolonged; IC50 (MCF-7 cells [6]): 6.82 ± 0.76 µM; IC50 (HeLa cells): 9.56 ± 1.03 µM; Intracellular ROS (tsFT210 cells [7]): increased significantly |
| COC(=O)Nc1nc2ccc(C(=O)c3cccs3)cc2[nH]1 [Nocodazole, reference compound] |  |  |  |  |  | Effect on cell cycle progression (tsFT210 cells [3]): arrested the cells at the G2/M phase |
| CC(=O)O[C@H](CC=C(C)C)C1=CC(=O)c2c(O)ccc(O)c2C1=O [Acetylshikonin] |  |  | 4.67 ± 0.34 µM | 3.92 ± 0.66 µM | 3.87 ± 0.68 µM |  |
| CC1=CC(=O)c2ccccc2C1=O [menadione, reference compound] |  |  | 5.13 ± 0.24 µM | 4.12 ± 0.87 µM | 5.37 ± 0.45 µM |  |
| CC(C)=CCCC1=CC(=O)c2c(O)ccc(O)c2C1=O [Deoxyshikonin] |  |  | 6.33 ± 0.65 µM | 3.22 ± 0.76 µM | 7.32 ± 0.45 µM |  |
| CC(C)=CC[C@@H](OC(=O)C(C)C)C1=CC(=O)c2c(O)ccc(O)c2C1=O [Isobutylshikonin] | 5.89 ± 0.43 µM | 6.79 ± 1.02 µM |  |  |  |  |
| COc1cccc2c1C(=O)c1c(O)c3c(c(O)c1C2=O)C[C@@](O)(C(=O)CO)C[C@@H]3O[C@H]1C[C@H](N)[C@H](O)[C@H](C)O1 [Doxorubicin, reference compound] |  |  |  |  |  | IC50 (tsFT210 cells [5]): 0.56 ± 0.14 µM; IC50 (MCF-7 cells [6]): 0.28 ± 0.03 µM; IC50 (HeLa cells): 0.43 ± 0.06 µM |
| CC(C)=CCC(OC(=O)C=C(C)C)C1=CC(=O)c2c(O)ccc(O)c2C1=O (stereo not drawn) [β,β-Dimethylacrylshikonin] |  | 4.67 ± 0.85 µM |  |  |  | IC50 (recombinant human Cdc25B; [10]): 8.56 ± 0.67 µM |
